Laboratory results as given in US9163018B2, “Method of treatment of age-related macular degeneration (AMD)” (Prana Biotechnology Limited, priority 2006, dated 2015).

Legend:
[1] = target: T1, Abeta:Zn (25:50 μM) Synthetic Aggregations (Homo sapiens, UniProt P05067); assay: Disaggregation of Abeta:Zn synthetic aggregates (ThT fluorescence); assay type: biochemical; conditions: for Disaggregation % Aggregate reduction at 5 μM: 5 μM test compound; for EC50: Abeta:Zn 25:50 μM aggregates
T1 construct: PB Compound Mediated Dissolution of Aggregated Abeta 1-42; purchased Keck Laboratory, Yale University School of Medicine
T1 sequence (P05067 672-713 limits assumed): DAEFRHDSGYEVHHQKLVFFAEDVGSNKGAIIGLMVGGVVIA
Procedure, shortened: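 ThT signal (excitation 450 nm, emission 480 nm) measured after compounds at final 1, 5, 10, 25 and 50 μM acted 2 h at 37 degrees on preformed aggregates. Those aggregates came from 24 h rotating incubation of 25 μM Abeta1-42, 50 μM ZnCl2 and 50 μM ThT in PBS pH 6.6.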

[2] = tested on: dityrosine oligomerization; assay: CuTy: inhibition of dityrosine oligomerization; assay type: biochemical; conditions: referenced to in-house standard (set as 100% inhibition)
[3] = tested on: M17 human neuroblastoma cells; assay: Cytotoxicity, M17 human neuroblastoma cells; assay type: cell-based; conditions: for Cytotox (% viable) M17 cells at 1 μM: 1 μM test compound; for Cytotox (% viable) M17 cells at 10 μM: 10 μM test compound
Procedure: Assay 3. MTS Assay for Cell Viability
Cell viability is determined using the MTS assay. Culture medium is replaced with fresh neurobasal medium plus B27 supplements minus antioxidants. 1/10th volume MTS solution (Cell Titre 96 Aqueous One, Promega Corporation) and incubated at 37° C., 2 hrs. 200 microliter aliquots are measured with a spectrophotometer at 560 nm.

[4] = Mice plasma concentration after oral dose; assay type: in vivo; conditions: 30 min to 4 h after single or repeat oral dose of 30 mg/kg
[5] = Toxicity, visual observations in mice; conditions: 30 mg/kg; duration and visual observations
[6] = tested on: primary cortical neuronal cultured cells; assay: Test compound cytotoxicity, MTS assay, primary cortical neuronal cultures; assay type: cell-based, mouse; conditions: for Cytotox (% viable) Neuronal cells at 1 μM: 1 μM test compound; for Cytotox (% viable) Neuronal cells at 10 μM: 10 μM test compound
Procedure, shortened: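 Primary cortical neurons were cultured five days in Neurobasal/B27, then exposed on day six to compounds (from 2.5 mM DMSO stocks) in medium minus antioxidants, in triplicate for 4 days at 37° C. Viability was measured by MTS, 2 h at 37° C, absorbance at 560 nm.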

Aβ 1-42 = target: T2, Aβ 1-42 (Homo sapiens, UniProt P05067); assay: Fluorometric H2O2 assay (inhibition of Abeta H2O2 production); assay type: biochemical; conditions: concentration required to inhibit 50% of Abeta H2O2 production; read-out: H2O2 IC50
T2 construct: The reaction solutions contained Aβ 1-42 at concentrations
T2 sequence (P05067 672-713 limits assumed): as above
Procedure, shortened: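 Reactions in PBS pH 7.4 at 37 C for 60 min, containing Aβ, copper and test compound. H2O2 output read as fluorescence of HRP-coupled deacetylated DCF. Fluorescence converted to H2O2 concentration via H2O2 standards.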

Row | SMILES | Disaggregation % Aggregate reduction at 5 μM [1] [%] | EC50 [1] [µM] | CuTy % inhibition of dityrosine oligomerization [2] | Cytotox (% viable) M17 cells at 1 μM [3] [%] | Cytotox (% viable) M17 cells at 10 μM [3] [%] | Mice plasma concentration [4] | Toxicity at 30 mg/kg [5] | Cytotox (% viable) Neuronal cells at 1 μM [6] [%] | Cytotox (% viable) Neuronal cells at 10 μM [6] [%] | IC50 (Aβ 1-42) [µM]
1 | CCC(C)n1cnc2c(O)c(Cl)cc(Cl)c2c1=O (centres unmarked) [PB 1112] | 46.4 | > 20 | CuTy: 125% inhibition | 99.2 | 68.6 | Up to 2949 ng/ mL ng/mL | 10 days, none | 94 | 67 | 
2 | Br.CCN(CC)Cc1nc2c(O)c(Cl)cc(Cl)c2c(=O)[nH]1 [PB 1128] | 41 |  | CuTy: 100% inhibition | 106.5 | 99.1 | Up to 2289 ng/ mL ng/mL | 10 days, none | 100.6 | 93.7 | 
3 | CC(C)c1cnc2c(O)cccn2c1=O [PB 1135] | 31 | > 20 | CuTy: 90% inhibition | 99.7 | 45.6 | Up to 409 ng/ml ng/mL | 10 days, none |  |  | 0.27
4 | O=c1c2c(Cl)cc(Cl)c(O)c2ncn1Cc1cn2ccccc2n1 [PB 1239] |  |  | CuTy: 50% inhibition | 109.2 | 98.2 | Up to 98.3 ng/ mL ng/mL | 10 days, none |  |  | 0.48
5 | O=c1c2c(Cl)cc(Cl)c(O)c2ncn1Cc1cccnc1 [PB 1240] |  |  | CuTy: 60% inhibition | 106.4 | 100.2 | Up to 4023.4 ng/mL | 10 days, none |  |  | 0.32
6 | O=c1c2c(Cl)cc(Cl)c(O)c2ncn1Cc1ccncc1 [PB 1241] |  |  | CuTy: 80% inhibition | 105.4 | 90.4 | Up to 2181.1 ng/mL | 10 days, none | 98.4 | 90.9 | 0.44
7 | O=c1c2c(Cl)cc(Cl)c(O)c2ncn1-c1ccccn1 [PB 1242] |  |  | CuTy: 50% inhibition | 102.7 | 102.6 | Up to 144.2 ng/ mL ng/mL | 10 days, none |  |  | 0.28
8 | Cn1ccnc1Cn1cnc2c(O)c(Cl)cc(Cl)c2c1=O [PB 1243] |  |  | CuTy: 60% inhibition | 112 | 122.3 | Up to 13214.8 ng/mL | 10 days, none |  |  | 0.38
9 | O=c1c2c(Cl)cc(Cl)c(O)c2ncn1C1=CCC=C1 [PB 1244] |  |  | CuTy: 10% inhibition | 125.7 | 114.8 | Up to 1477.4 ng/mL | 10 days, none |  |  | 1.32
10 | O=c1c2c(Cl)cc(Cl)c(O)c2ncn1-c1ccc2[nH]ncc2c1 [PB 1246] |  |  | CuTy: 120% inhibition | 104.3 | 73.5 | Up to 126 ng/ mL ng/mL | 10 days, none |  |  | 0.31
11 | O=C(O)Cn1cnc2c(O)c(Cl)cc(Cl)c2c1=O [PB 1249] |  |  | CuTy: 100% inhibition | 105 | 100.7 | Up to 4830.2 ng/ml ng/mL | 10 days, none |  |  | 0.49
12 | Br.CN1CCCC1Cn1cnc2c(O)c(Cl)cc(Cl)c2c1=O (centres unmarked) [PB 1253] |  |  | CuTy: 70% inhibition | 106.6 | 93.9 | Up to 382.5 ng/ mL ng/mL | 10 days, none |  |  | 0.43
13 | O=c1c2c(Cl)cc(Cl)c(O)c2ncn1Cc1nccs1 [PB 1254] |  |  | CuTy: 90% inhibition | 106.6 | 106 | Up tp 441.4 ng/ mL ng/mL | 10 days, none |  |  | 0.25
14 | O=c1c2c(Cl)cc(Cl)c(O)c2ncn1Cc1nc2ccccc2s1 [PB 1257] |  |  | CuTy: 60% inhibition | 111.1 | 80.9 | Up to 166.1 ng/ mL ng/mL | 10 days, none |  |  | 0.69
15 | O=c1c2c(Cl)cc(Cl)c(O)c2ncn1CCNCc1ccncc1 [PB 1264] |  |  | CuTy: 100% inhibition | 103 | 104.8 | Up to 1639.8 ng/mL | 10 days, none |  |  | 0.45
16 | CN(C)Cc1nc2c(O)c(Cl)cc(Cl)c2c(=O)n1CC1CC1.Cl [PB 1267] |  |  | CuTy: 110% inhibition | 94.4 | 74.5 | Up to 1166.6 ng/ml ng/mL | 10 days, none |  |  | 0.37
17 | CCn1c(CN(C)C)nc2c(O)c(Cl)cc(Cl)c2c1=O.Cl [PB 1268] |  |  | CuTy: 110% inhibition | 99.2 | 102.1 | Up to 975.9 ng/ml ng/mL | 10 days, none |  |  | 0.36
18 | Br.CN(C)Cc1nc2c(O)c(Cl)cc(Cl)c2c(=O)n1C [PB 1269] |  |  | CuTy: 110% inhibition | 109.3 | 114.7 | Up to 492.1 ng/ml ng/mL | 10 days, 1/4 mild signs |  |  | 0.28
19 | O=c1c2c(Cl)cc(Cl)c(O)c2ncn1Nc1ccc(F)cc1F [PB-1100] | 42 |  | CuTy: 10% inhibition | 108.1 | 80.5 | Up to 1,130.6 ng/mL | 10 days, none | 100 | 92 | 
